Test results: PubChem BioAssay (NCI)
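Growth conditions: 96-well plates. Treatment: test compound, 48 hours, 5 concentrations. Analysis: linear interpolation between bracketing concentrations; unreached endpoints set to highest concentration. At the GI50, growth is halved. Definition used: TGI = concentration required for complete inhibition of growth.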

What was measured:
Assay in all cases: growth of human tumour cells (NCI), 48 h
[1] = test system: NCI-H23 lung
[2] = test system: PC-3 prostate
[3] = test system: CCRF-CEM leukemia
[4] = test system: SF-268 CNS
[5] = test system: NCI/ADR-RES ovarian
[6] = test system: HOP-92 NSCLC
[7] = test system: HCC-2998 colon
[8] = test system: RPMI-8226 leukemia
[9] = test system: MALME-3M melanoma
[10] = test system: UACC-62 melanoma
[11] = test system: RXF 393 renal
[12] = test system: MDA-MB-468 breast
[13] = test system: SR leukemia
[14] = test system: KM12 colon
[15] = test system: T-47D breast
[16] = test system: 786-0 renal
[17] = test system: EKVX NSCLC
[18] = test system: HCT-116 colon
[19] = test system: A549 NSCLC
[20] = test system: IGROV1 ovarian
[21] = test system: U251 CNS
[22] = test system: K-562 leukemia
[23] = test system: SF-295 CNS
[24] = test system: OVCAR-4 ovarian
[25] = test system: HOP-62 NSCLC
[26] = test system: MCF7 breast
[27] = test system: NCI-H226 lung
[28] = test system: MDA-MB-435
[29] = test system: SF-539 CNS
[30] = test system: COLO 205 colon
[31] = test system: SK-OV-3 ovarian
[32] = test system: NCI-H522 lung
[33] = test system: SNB-19 CNS
[34] = test system: DU-145 prostate
[35] = test system: A498 renal
[36] = test system: OVCAR-3 ovarian
[37] = test system: M14 melanoma
[38] = test system: SK-MEL-5 melanoma
[39] = test system: ACHN renal
[40] = test system: OVCAR-5 ovarian
[41] = test system: SW-620 colon
[42] = test system: OVCAR-8 ovarian
[43] = test system: SK-MEL-28 melanoma
[44] = test system: CAKI-1 renal
[45] = test system: TK-10 renal
[46] = test system: HL-60(TB) leukemia
[47] = test system: BT-549 breast
[48] = test system: SN12C renal
[49] = test system: MOLT-4 leukemia
[50] = test system: NCI-H460 lung
[51] = test system: HT29 colon
[52] = test system: LOX IMVI melanoma
[53] = test system: HCT-15 colon
[54] = test system: HS 578T breast

In the case of `CC(C)C[C@H](NC(=O)CNC(=O)C[C@H]1O[C@@H]2OC3(C)CC[C@H]4[C@H](C)CC[C@@H]([C@H]1C)[C@@]24O3)B(O)O`, the GI50 [1] is reported as 3.1 µM, the TGI [1] is reported as 11.8 µM and the GI50 [2] is reported as 5.47 µM. It also gave a TGI [2] of 67 µM, a GI50 [3] of 0.502 µM and a TGI [3] of 3.88 µM. It also gave a GI50 [4] of 3.51 µM, a TGI [4] of 97.5 µM and a GI50 [5] of 40.6 µM. For the same compound, the TGI [5] was greater than 100 µM, the GI50 [6] was 3.12 µM and the TGI [6] was 9.51 µM. The GI50 [7] was 1.92 µM, the TGI [7] was 3.46 µM and the GI50 [8] was 0.272 µM. It also gave a TGI [8] of 1.38 µM, a GI50 [9] of 1.22 µM and a TGI [9] of 4.4 µM. For the same compound, the GI50 [10] was 1.92 µM, the TGI [10] was 4.61 µM and the GI50 [11] was 0.738 µM. It also gave a TGI [11] of 2.18 µM, a GI50 [12] of 1.43 µM and a TGI [12] of 3.57 µM. For the same compound, the GI50 [13] was 0.303 µM, the TGI [13] was 1.5 µM and the GI50 [14] was 2.71 µM. The TGI [14] was 7.32 µM, the GI50 [15] was 2.19 µM and the TGI [15] was 5.88 µM. It also gave a GI50 [16] of 4.22 µM, a TGI [16] of 53.6 µM and a GI50 [17] of 7.94 µM. For the same compound, the TGI [17] was 79.6 µM, the GI50 [18] was 1.46 µM and the TGI [18] was 3.7 µM. It also gave a GI50 [19] of 3.93 µM, a TGI [19] greater than 100 µM and a GI50 [20] of 6.94 µM. For the same compound, the TGI [20] was 34.4 µM, the GI50 [21] was 3.61 µM and the TGI [21] was 17.6 µM. It also gave a GI50 [22] of 3.69 µM, a TGI [22] greater than 100 µM and a GI50 [23] of 2.45 µM. The TGI [23] was 11.3 µM, the GI50 [24] was 5.64 µM and the TGI [24] was greater than 100 µM. For the same compound, the GI50 [25] was 3.89 µM, the TGI [25] was 18.4 µM and the GI50 [26] was 1.36 µM. For the same compound, the TGI [26] was 41 µM, the GI50 [27] was 0.645 µM and the TGI [27] was 2.14 µM. It also gave a GI50 [28] of 1.38 µM, a TGI [28] of 3.93 µM and a GI50 [29] of 1.32 µM. It also gave a TGI [29] of 3.08 µM, a GI50 [30] of 4.79 µM and a TGI [30] of 22.2 µM. It also gave a GI50 [31] of 6.45 µM, a TGI [31] of 35.2 µM and a GI50 [32] of 1.63 µM. For the same compound, the TGI [32] was 3.3 µM, the GI50 [33] was 5.83 µM and the TGI [33] was greater than 100 µM. For the same compound, the GI50 [34] was 13.5 µM, the TGI [34] was greater than 100 µM and the GI50 [35] was 6.87 µM. The TGI [35] was 49 µM, the GI50 [36] was 1.78 µM and the TGI [36] was 4.27 µM. It also gave a GI50 [37] of 1.91 µM, a TGI [37] of 4.82 µM and a GI50 [38] of 1.79 µM. The TGI [38] was 3.67 µM, the GI50 [39] was 3.99 µM and the TGI [39] was greater than 100 µM. The GI50 [40] was 2.53 µM, the TGI [40] was 13.8 µM and the GI50 [41] was 2.78 µM. It also gave a TGI [41] of 17.8 µM, a GI50 [42] of 3.58 µM and a TGI [42] of 17.6 µM. It also gave a GI50 [43] of 1.45 µM, a TGI [43] of 7.28 µM and a GI50 [44] of 16.8 µM. The TGI [44] was greater than 100 µM, the GI50 [45] was 3.01 µM and the TGI [45] was 20.1 µM. It also gave a GI50 [46] of 0.514 µM, a TGI [46] of 4.15 µM and a GI50 [47] of 0.537 µM. It also gave a TGI [47] of 2.45 µM, a GI50 [48] of 2.98 µM and a TGI [48] of 12 µM. For the same compound, the GI50 [49] was 0.332 µM, the TGI [49] was 1.92 µM and the GI50 [50] was 4.72 µM. For the same compound, the TGI [50] was 23 µM, the GI50 [51] was 1.67 µM and the TGI [51] was 4.63 µM. It also gave a GI50 [52] of 1.44 µM, a TGI [52] of 3.14 µM and a GI50 [53] of 6.42 µM. It also gave a TGI [53] of 24.1 µM, a GI50 [54] of 3.5 µM and a TGI [54] of 70.6 µM.
